According to US10821100B2, “Triazolone compounds as mPGES-1 inhibitors” (Glenmark Pharmaceuticals S.A., priority 2012, dated 2020):

Target: T1, Recombinant human mPGES-1 (Homo sapiens, UniProt O14684)
T1 construct: made in house; host or cells: CHO cells (crude microsomal fractions)
T1 sequence (O14684 1-152): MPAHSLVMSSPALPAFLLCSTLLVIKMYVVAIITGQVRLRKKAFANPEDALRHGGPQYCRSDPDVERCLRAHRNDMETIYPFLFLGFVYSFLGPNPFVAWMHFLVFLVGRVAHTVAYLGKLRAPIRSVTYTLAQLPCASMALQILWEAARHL
Assay: In-vitro screening of mPGES-1 inhibitors (inhibition of PGE2 formation from PGH2, HTRF detection)
Assay type: biochemical
Settings: mPGES-1 enzyme; for inhibition at 1 µM: 1 μM test compound, read-out: Percentage inhibition at 1 μM; for inhibition at 1 µM / inhibition at 10 µM: crude microsomal fractions; for inhibition at 10 µM: 10 μM test compound, read-out: Percentage inhibition at 10 μM; for IC50: class symbols
Text: In-Vitro Protocol for Screening of mPGES-1 Inhibitors: mPGES-1 (Microsomal prostaglandin E synthase-1) is a microsomal enzyme that converts endoperoxide substrate PGH2 (prostaglandin H2) to product PGE2 (prostaglandin E2) by isomerization in the presence of reduced glutathione (GSH). mPGES-1 inhibitors were screened by assessing their ability to inhibit formation of PGE2 from PGH2 in the presence of mPGES-1 using an anti-PGE2 antibody based detection method. Recombinant human mPGES-1 was generated in-house by expression in CHO cells (Ouellet M et al. (2002), Protein Expression and Purification 26: 489-495). The assay was set up using crude microsomal fractions at a protein concentration of 40-60 μg/mL. Test compounds were prepared in 100% dimethyl sulfoxide (DMSO) to obtain 20 mM stock solution and then diluted using assay buffer comprising 0.1 M Potassium phosphate buffer with 2 mM EDTA. The final concentration of DMSO in the reaction was 0.5% (v/v). Negative controls were comprised of all assay reagents except the enzyme. Positive controls were comprised of the enzyme reaction in the absence of any inhibitor. Test compounds were incubated for 10 minutes in assay buffer containing 2.5 mM GSH and mPGES-1 enzyme followed by addition of PGH2 at a concentration of 15 μM for 1 minute. The reaction was stopped by addition of Stannous chloride (11 mg/ml) and PGE2 levels were measured ([…] et al. (2005), Journal of Biomolecular Screening 10(6) 599-605; Goedken R E et al. (2008), Journal of Biomolecular Screening 13 (7): 619-625) by HTRF kit (CisBio)). Inhibition of mPGES-1 enzyme activity was measured using the percent of reaction occurring in the positive control. Concentration response curves were plotted using percent inhibition of maximum enzyme reaction. The IC50 value was calculated from the concentration response curve by nonlinear regression analysis using GraphPad PRISM software.

| inhibition at 1 µM [%] | inhibition at 10 µM [%] | IC50 [nM] | Structure (SMILES) |
| --- | --- | --- | --- |
| 47.2 | 95.1 | – | Cn1ccnc1C(=O)NCc1ccc(Cl)c(-c2nn(-c3ccc(C(F)(F)F)cc3)c(=O)[nH]2)c1 [Example-110, N-(4-Chloro-3-(1-(4-(trifluoromethyl)phenyl)-4,5-dihydro-5-oxo-1H-1,2,4-triazol-3-yl)benzyl)-1-methyl-1H-imidazole-2-carboxamide] |
| 88.8 | 94 | 50 to 100 | O=C(Nc1ccc(F)c(C(F)(F)F)c1)c1ccc(-n2nc(-c3c(F)cccc3Cl)[nH]c2=O)cc1 [Example-32, 4-(3-(2-Chloro-6-fluorophenyl)-5-oxo-4,5-dihydro-1H-1,2,4-triazol-1-yl)-N-(4-fluoro-3-(trifluoromethyl)phenyl)benzamide] |
| 89.4 | 97.5 | 50 to 100 | COc1cc(-n2nc(-c3c(C)cccc3Cl)[nH]c2=O)ccc1C(=O)Nc1cccc(C(F)F)c1 [Example-54, 4-(3-(2-Chloro-6-methylphenyl)-5-oxo-4,5-dihydro-1H-1,2,4-triazol-1-yl)-N-(3-(difluoromethyl)phenyl)-2-methoxybenzamide] |
| 99.1 | 98.3 | < 50 | COc1cc(-c2nn(-c3c(Cl)cccc3Cl)c(=O)[nH]2)ccc1C#Cc1ccc(C(F)(F)F)cc1Cl [Example-75, 3-(4-((2-Chloro-4-(trifluoromethyl)phenyl)ethynyl)-3-methoxyphenyl)-1-(2,6-dichlorophenyl)-1H-1,2,4-triazol-5(4H)-one] |
| 79.9 | 95 | – | CC1(C)CCC(n2nc(-c3cc(CNC(=O)C(C)(C)C)c(F)cc3Cl)[nH]c2=O)CC1 [Example-125, N-(4-Chloro-2-fluoro-5-(4,5-dihydro-1-(4,4-dimethylcyclohexyl)-5-oxo-1H-1,2,4-triazol-3-yl)benzyl)pivalamide] |
| 32.4 | 58.5 | – | COc1cc(Cl)c(-c2nn(-c3ccc(C(F)(F)F)cc3)c(=O)[nH]2)cc1CNC(=O)C(C)(C)C [Example-127, N-(4-Chloro-5-(1-(4-(trifluoromethyl)phenyl)-4,5-dihydro-5-oxo-1H-1,2,4-triazol-3-yl)-2-methoxybenzyl)pivalamide] |
| 81.7 | 97.2 | > 100 | CC(C)(C)C(=O)NCc1ccc(Cl)c(-n2nc(-c3ccc(Cl)cc3F)[nH]c2=O)c1F [Example-90, N-(4-Chloro-3-(3-(4-chloro-2-fluorophenyl)-5-oxo-4,5-dihydro-1H-1,2,4-triazol-1-yl)-2-fluorobenzyl)pivalamide] |
| 99.1 | 98.4 | < 50 | CC(C)(C)C(=O)NCc1cc(-c2nn(-c3ccc(C(F)(F)F)cc3)c(=O)[nH]2)c(Cl)cc1F [Example-114, N-(4-Chloro-2-fluoro-5-(1-(4-(trifluoromethyl)phenyl)-4,5-dihydro-S-oxo-1H-1,2,4-triazol-3-yl)benzyl)pivalamide] |
| 96.8 | 99.6 | < 50 | CC(C)(C)C(=O)NCc1ccc(Cl)c(-n2nc(-c3ccc(C(F)(F)F)cc3)[nH]c2=O)c1F [Example-93, N-(4-Chloro-2-fluoro-3-(5-oxo-3-(4-(trifluoromethyl)phenyl)-4,5-dihydro-1H-1,2,4-triazol-1-yl)benzyl)pivalamide] |
| 86.4 | 89.1 | > 100 | COc1cc(-n2nc(-c3cc(S(=O)(=O)NC4CC4)ccc3Cl)[nH]c2=O)ccc1C(=O)Nc1cccc(C(F)(F)F)c1 [Example-69, 4-(3-(2-Chloro-5-(N-cyclopropylsulfamoyl)phenyl)-5-oxo-4,5-dihydro-1H-1,2,4-triazol-1-yl)-2-methoxy-N-(3-(trifluoromethyl)phenyl)benzamide] |
| 93.4 | 99.2 | 50 to 100 | CC(C)(C)C(=O)NCc1ccc(Cl)c(-n2nc(-c3ccc(C(F)(F)F)cc3F)[nH]c2=O)c1F [Example-87, N-(4-Chloro-2-fluoro-3-(3-(2-fluoro-4-(trifluoromethyl)phenyl)-5-oxo-4,5-dihydro-1H-1,2,4-triazol-1-yl)benzyl)pivalamide] |
| 99.4 | 99.4 | < 50 | CC(C)(CF)C(=O)NCc1ccc(Cl)c(-c2nn(-c3ccc(C(F)(F)F)cc3)c(=O)[nH]2)c1 [Example-175, N-(4-Chloro-3-(1-(4-(trifluoromethyl)phenyl)-4,5-dihydro-5-oxo-1H-1,2,4-triazol-3-yl)benzyl)-3-fluoro-2,2-dimethylpropanamide] |
| 76 | 99.4 | > 100 | O=C(NCc1ccc(Cl)c(-n2nc(-c3ccc(C(F)(F)F)cc3F)[nH]c2=O)c1)C1CC1 [Example-92, N-(4-Chloro-3-(3-(2-fluoro-4-(trifluoromethyl)phenyl)-5-oxo-4,5-dihydro-1H-1,2,4-triazol-1-yl)benzyl)cyclopropanecarboxamide] |
| 13.2 | 52.9 | – | COc1ccc(-n2nc(-c3c(F)cccc3Cl)[nH]c2=O)cc1C(=O)NC1(c2ccc(C(F)(F)F)cc2)CC1 [Example-23, 5-[3-(2-Chloro-6-fluorophenyl)-5-oxo-4,5-dihydro-1H-1,2,4-triazol-1-yl]-2-methoxy-N-[1-[4-(trifluoromethyl)phenyl]cyclopropyl]benzamide] |
| 84.9 | 91.2 | < 50 | O=c1[nH]c(-c2c(F)cccc2Cl)nn1-c1ccc(C#Cc2cc(Cl)ccc2Cl)cc1 [Example-10, 5-(2-Chloro-6-fluorophenyl)-2-{4-[(2,5-dichlorophenyl)ethynyl]phenyl}-2,4-dihydro-3H-1,2,4-triazol-3-one] |
| 100 | 100 | < 50 | O=C(NCc1ccc(Cl)c(-n2nc(-c3ccc(C#CC4CC4)cc3)[nH]c2=O)c1)C(F)(F)F [Example-190, N-(4-Chloro-3-(3-(4-(cyclopropylethynyl)phenyl)-5-oxo-4,5-dihydro-1H-1,2,4-triazol-1-yl)benzyl)-2,2,2-trifluoroacetamide] |
| 95 | 98.2 | < 50 | O=C(NCc1ccc(Cl)c(-c2nn(-c3ccc(C(F)(F)F)cc3)c(=O)[nH]2)c1)[C@H]1CCCO1 [Example-101, (R)—N-(4-Chloro-3-(5-oxo-1-(4-(trifluoromethyl)phenyl)-4,5-dihydro-1H-1,2,4-triazol-3-yl)benzyl)tetrahydrofuran-2-carboxamide] |
| 52.2 | 68.7 | – | O=c1[nH]c(-c2cc(S(=O)(=O)NC3CC3)ccc2Cl)nn1-c1ccc(C(F)(F)F)cc1 [Example-96, 4-Chloro-N-cyclopropyl-3-(5-oxo-1-(4-(trifluoromethyl)phenyl)-4,5-dihydro-1H-1,2,4-triazol-3-yl)benzenesulfonamide] |
| 40.9 | 92.3 | – | O=c1[nH]c(-c2c(F)cccc2Cl)nn1-c1ccc(C#Cc2ccc(N3CCOCC3)nc2)cc1 [Example-16, 5-(2-Chloro-6-fluorophenyl)-2-(4-{[6-(morpholin-4-yl)pyridin-3-yl]ethynyl}phenyl)-2,4-dihydro-3H-1,2,4-triazol-3-one] |
| 93.9 | 99.1 | < 50 | CC(C)(C)C(=O)NCc1ccc(Cl)c(-c2nn(-c3ccc(F)c(Cl)c3)c(=O)[nH]2)c1 [Example-139, N-(4-Chloro-3-(1-(3-chloro-4-fluorophenyl)-4,5-dihydro-5-oxo-1H-1,2,4-triazol-3-yl)benzyl)pivalamide] |
| 75.5 | 94.5 | – | COc1cc(-n2nc(-c3c(Cl)cccc3Cl)[nH]c2=O)ccc1-c1nc2cc(C(F)(F)F)ccc2[nH]1 [Example-65, 3-(2,6-Dichlorophenyl)-1-(3-methoxy-4-(5-(trifluoromethyl)-1H-benzo[d]imidazol-2-yl)phenyl)-1H-1,2,4-triazol-5(4H)-one] |
| 99.9 | 100 | < 50 | CC(C)(C)C(=O)NCc1ccc(Cl)c(-c2nn(-c3ccc(Cl)c(C(F)(F)F)c3)c(=O)[nH]2)c1F [Example-174, N-(4-Chloro-3-(1-(4-chloro-3-(trifluoromethyl)phenyl)-4,5-dihydro-5-oxo-1H-1,2,4-triazol-3-yl)-2-fluorobenzyl)pivalamide] |
